Results as given in patent US20060276385A1, “Anti-inflammatory agents and methods of their use” (priority 2003, published 2006).

What was measured:
MAE-p47−/− cells = assay: Monocyte adhesion to p47phox-null endothelial cells, with or without p47phox transfection; type: cell-based, mouse; settings: 18 hrs
Procedure: Endothelial cells: Mouse aortic endothelial cells (MAEC) were cultured and used at passages 4-8 as described (Cai, H., et al. (2002) J Bio Chem 107, 48311-48317). Human aortic endothelial cells (HAEC) purchased from Clonetics were cultured using EGM-2 bullet kit (Clonetics) and used at passages 4-8. Alternatively, endothelial cells obtained from the thoracic aortas of C57/BL6 control (MAE-wt) and p47^phox-null mice (MAE-p47^−/−) were isolated and cultured as described previously (Hwang, J. et al. (2003) J Biol Chem 278:47291-8), and used between passages 4-10.
Monocyte Adhesion: Monocyte binding was determined under no-flow conditions using THP-1 monocytes (ATCC) by the method described by Chappel et al (Chappell, D. C., et al. (1998) Circ Res 82, 532-539). Briefly, THP-1 cells (5×10^5 cells/ml) were labeled with a fluorescent dye 2′,7′-bis(carboxyethyl)-5(6)-carboxyfluorescein-AM (BCECF, Molecular Probes) (1 mg/ml) in serum-free RPMI medium for 45 min at 37° C. Following exposure to shear stress or BMP treatments in the presence or absence of noggin or vehicle, the endothelial cells were washed in RPMI medium before adding BCECF-loaded THP-1 cells (1:1 ratio). After a 30 min incubation at 37° C. under no-flow conditions, unbound monocytes were removed by washing the endothelial dishes 5 times with Hank's PBS. Bound monocytes were quantified by either counting the cells under a fluorescent microscope or by measuring the fluorescent intensity of cell lysates by fluorescence spectrophotometry using a plate reader. […] Some studies were performed with MAEC pretreated with 5 μg/ml of mouse-ICAM1 antibody (YN1, Southern Biolechonology) (Kevil, C. G., et al. (2001) Am J Physiol Cell Physiol 281, C1442-1447).
Transfection of p47phox: In some studies MAE-p47^−/− cells were trasnfected withp47phox expression vector or an empty vector as described (Hwang, J. et al. (2003) J Biol Chem278-47291-8).
Next, monocyte adhesion was determined in these cells. […] After 18 hrs, cells were washed and monocyte binding was determined as described in FIG. 7. […]

VCAM-1 = VCAM-1 expression in endothelial cells; type: cell-based, human
Procedure: Fluorescence activated cytometry sorting (FACS) analysis: Treated cells were dissociated into single cell suspensions using 0.25% trypsin-EDTA and resuspended in a FACS buffer (Hank's buffered solution containing 5% FBS). Aliquots of cell suspensions were incubated with ICAM-1 antibody (R&D Systems) for 20 min on ice, washed twice with FACS buffer, and incubated with secondary antibody (fluorescein-5-isothiocyanate- or phycoerytherin-conjugated, Chemicon) for 20 min on ice in the dark. Then samples were washed again, fixed in 1% paraformaldehyde and analyzed by FACS (Calibur, Becton-Dickinson) using CellQuest software. The fluorescence intensity of ICAM-1 and forward cell scattering of 30,000 cells were measured and the geometric means calculated from histograms were shown. In some studies, HAEC were transfected with either BMP4 cloned in a bi-cistronic pAdTrack CMV vector or an empty vector, both expressing green fluorescent protein (GFP), using Lipofectamine 2000. In these experiments, ICAM-1 expression was measured in the red phycoerytherin channel, while the green channel was used to monitor the […] expression-GFP expression was determined by FACS analysis and fluorescence microscopy (20-30% transfection efficiency). Because expression of GFP was similar among different treatment groups within the same experiment, it was unnecessary to normalize ICAM-1 expression data to GFP level. Human recombinant noggin was purchased from R&D Systems and used in all experiments at 50 ng/ml (Dale, L., and Jones, C. M. (1999) Bioessays 21, 751-760; Zimmerman, L. B., et al. (1996) Cell 86, 599-606; Brunei, L. J., et al. (1998) Science 280, 1455-1457).
(§1) HAEC treated with OS, BMP4 or static condition were analyzed by FACS using antibodies specific to VCAM-1 (C) and E-selectin (D) as described in panel A using TNFa (1OOU/ml, for 2 hr) as a positive control.

E-selectin = E-selectin surface expression by FACS analysis in HAEC; type: cell-based, human; settings: TNF-α 100 U/ml for 2 hr as positive control
Procedure: Fluorescence activated cytometry sorting (FACS) analysis: Treated cells were dissociated into single cell suspensions using 0.25% trypsin-EDTA and resuspended in a FACS buffer (Hank's buffered solution containing 5% FBS). Aliquots of cell suspensions were incubated with ICAM-1 antibody (R&D Systems) for 20 min on ice, washed twice with FACS buffer, and incubated with secondary antibody (fluorescein-5-isothiocyanate- or phycoerytherin-conjugated, Chemicon) for 20 min on ice in the dark. Then samples were washed again, fixed in 1% paraformaldehyde and analyzed by FACS (Calibur, Becton-Dickinson) using CellQuest software. The fluorescence intensity of ICAM-1 and forward cell scattering of 30,000 cells were measured and the geometric means calculated from histograms were shown. […] In these experiments, ICAM-1 expression was measured in the red phycoerytherin channel, while the green channel was used to monitor the […] expression-GFP expression was determined by FACS analysis and fluorescence microscopy (20-30% transfection efficiency). […]
as §1

MAE-wt cells = assay: O2− assay by electron spin resonance spectroscopy with CMH spin probe; type: cell-based, mouse; settings: MAE-wt cells, BMP4 200 ng/ml for 18 hrs, SOD-inhibitable CM signal
Procedure: O2^− Assay: O2^− production was determined by electron spin resonance spectroscopy using methoxycarbonyl-2,2,5,5-tetramethyl-pyrrolidine (CMH) as a spin probe in the presence or absence of PEG-superoxide dismutase (PEG-SOD; 50 U/ml) to quantify the SOD-inhibitable portions of CM.
In FIG. 10A immediately following treatment of MAE wt cells with BMP4 (200 ng/ml) for 18 hrs, cells were trypsinized and reconstituted in Krebs-Hepes buffer. Equal number of cells was incubated with a spin trap CMH in the presence or absence of PEG-SOD (50 U/mL). The specific O2^− production was calculated by subtracting SOD-inhibitable portions from total O2^− production as determined by following CM production (mean±SEM, n=3, *p<0.05).

BMP4
increase in monocyte adhesion above the control (MAE-p47−/− cells; MAE-p47−/− cells transfected with p47phox (rescued), BMP4 20 ng/ml or TNF-α 100 U/ml): 4- to 5 fold
monocyte adhesion response (MAE-p47−/− cells; MAE-p47−/− cells, BMP4 20 ng/ml): failed to stimulate monocyte adhesion
effect on VCAM-1 (VCAM-1; FIG. 5E study, p>0.05, n=3): marginal at best and not significant
effect on surface expression of VCAM-1 (VCAM-1; HAEC, FACS, TNF-α 100 U/ml for 2 hr as positive control): neither OS nor BMP4 had any effect
effect on surface expression of E-selectin (E-selectin): neither OS nor BMP4 had any effect
O2− production above control (MAE-wt cells): 2.9 fold
